Measurements as given in PubChem BioAssay AID256 (DTP/NCI, 2004).
Where “and” joins values, the source holds several entries; their conditions need not be identical. Equal values may be shown once. Inconclusive results and toxic doses are left out. Rule for the calls: active = survival T/C of 150% or more; inactive = T/C below 125% in these data.

System: CD2F1 mice, L1210 leukemia ip, survival T/C
Test: NCI In Vivo Anticancer Drug Screen. Data for tumor model L1210 Leukemia (intraperitoneal) in CD2F1 (CDF1) mice
Details: higher = longer survival
Summary of the method: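 Each value reflects a quotient of treated over vehicle control outcomes in mice with a transplanted tumor.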

[1] = endpoint: mean survival time, dose: 25.0 mg/kg/injection, schedule: Q01DX009 (ip), vehicle: saline with Tween-80
[2] = endpoint: mean survival time, dose: 50.0 mg/kg/injection, schedule: Q01DX009 (ip), vehicle: saline with Tween-80
[3] = endpoint: mean survival time, dose: 100.0 mg/kg/injection, schedule: Q01DX009 (ip), vehicle: saline with Tween-80
[4] = endpoint: mean survival time, dose: 100.0 mg/kg/injection, schedule: Q01DX009 (ip), vehicle: saline
[5] = endpoint: mean survival time, dose: 200.0 mg/kg/injection, schedule: Q01DX009 (ip), vehicle: saline

Measured: T/C

COc1ccccc1N=Nc1c(O)n(-c2ccc(Cl)cc2)c(=S)n(-c2ccccc2)c1=O
inactive: endpoint: mean survival time, dose: 100.0 mg/kg/injection, schedule: Q01DX001 (ip), vehicle: saline with Tween-80 97 % of control | endpoint: mean survival time, dose: 100.0 mg/kg/injection, schedule: Q04DX002 (ip), vehicle: saline with Tween-80 98 % of control | endpoint: mean survival time, dose: 200.0 mg/kg/injection, schedule: Q01DX001 (ip), vehicle: saline with Tween-80 97 % of control | endpoint: mean survival time, dose: 200.0 mg/kg/injection, schedule: Q04DX002 (ip), vehicle: saline with Tween-80 94 % of control | endpoint: mean survival time, dose: 400.0 mg/kg/injection, schedule: Q01DX001 (ip), vehicle: saline with Tween-80 103 % of control | endpoint: mean survival time, dose: 400.0 mg/kg/injection, schedule: Q04DX002 (ip), vehicle: saline with Tween-80 102 % of control

C=CCN(N=O)C(=O)OCC
inactive: endpoint: mean survival time, dose: 12.5 mg/kg/injection, schedule: Q01DX009 (ip), vehicle: other 107 % of control | endpoint: mean survival time, dose: 25.0 mg/kg/injection, schedule: Q01DX009 (ip), vehicle: other 107 % of control | endpoint: mean survival time, dose: 50.0 mg/kg/injection, schedule: Q01DX009 (ip), vehicle: other 104 % of control | endpoint: mean survival time, dose: 100.0 mg/kg/injection, schedule: Q01DX009 (ip), vehicle: other 113 % of control

O=C1CCC/C1=C/c1ccco1
inactive: [1] 93 % of control | [2] 95 % of control | [3] 86 % of control and 90 % of control

Nc1nc(N)c2ncn(C3CC(CO)C(O)C3O)c2n1 (stereo unspecified)
inactive: [2] 89 % of control

c1ccc2c(NC3=NCCO3)c3ccccc3nc2c1
inactive: endpoint: mean survival time, dose: 12.5 mg/kg/injection, schedule: Q04DX003 (ip), vehicle: saline with Tween-80 93 % of control | endpoint: mean survival time, dose: 25.0 mg/kg/injection, schedule: Q04DX003 (ip), vehicle: saline with Tween-80 96 % of control

Clc1ccc2[nH]c3nc4ccccc4nc3c2c1
inactive: [4] 106 % of control | [5] 108 % of control

O=C1C2CC=CCC2C(=O)N1SC(Cl)(Cl)Cl (stereo unspecified)
inactive: endpoint: mean survival time, dose: 0.78 mg/kg/injection, schedule: Q01DX009 (ip), vehicle: saline with Tween-80 97 % of control | endpoint: mean survival time, dose: 1.56 mg/kg/injection, schedule: Q01DX009 (ip), vehicle: saline with Tween-80 97 % of control | endpoint: mean survival time, dose: 3.12 mg/kg/injection, schedule: Q01DX009 (ip), vehicle: saline with Tween-80 97 % of control | endpoint: mean survival time, dose: 6.25 mg/kg/injection, schedule: Q01DX009 (ip), vehicle: saline with Tween-80 93 % of control | endpoint: mean survival time, dose: 12.5 mg/kg/injection, schedule: Q01DX009 (ip), vehicle: saline with Tween-80 101 % of control | [1] 89 % of control

Cc1cnc(O[Si](C)(C)C)nc1O[Si](C)(C)C
inactive: [3] 97 % of control | endpoint: mean survival time, dose: 100.0 mg/kg/injection, schedule: Q04DX003 (ip), vehicle: saline with Tween-80 97 % of control | endpoint: mean survival time, dose: 200.0 mg/kg/injection, schedule: Q01DX009 (ip), vehicle: saline with Tween-80 96 % of control | endpoint: mean survival time, dose: 200.0 mg/kg/injection, schedule: Q04DX003 (ip), vehicle: saline with Tween-80 98 % of control | endpoint: mean survival time, dose: 400.0 mg/kg/injection, schedule: Q01DX009 (ip), vehicle: saline with Tween-80 103 % of control | endpoint: mean survival time, dose: 400.0 mg/kg/injection, schedule: Q04DX003 (ip), vehicle: saline with Tween-80 101 % of control

CCOC(=O)c1cnc2c(cnn2CC)c1N1CCN(CCO)CC1
inactive: endpoint: mean survival time, dose: 100.0 mg/kg/injection, schedule: Q04DX003 (ip), vehicle: Klucel (hydroxypropylcellulose) (HPC) 101 % of control

Cc1c(N)nc([C@H](CC(N)=O)NC[C@H](N)C(N)=O)nc1C(=O)N[C@H](C(=O)N[C@H](C)[C@@H](O)[C@H](C)C(=O)N[C@H](C(=O)NCCc1nc(-c2nc(C(=O)NCCC[S+](C)C)cs2)cs1)[C@@H](C)O)C(OC1OC(CO)C(O)C(O)C1OC1OC(CO)C(O)C(OC(N)=O)C1O)c1cnc[nH]1 (stereo partly specified)
inactive: endpoint: mean survival time, dose: 2.0 mg/kg/injection, schedule: Q01DX009 (ip), vehicle: saline 103 % of control and 106 % of control | endpoint: mean survival time, dose: 2.0 mg/kg/injection, schedule: Q01DX009 (ip), vehicle: water 106 % of control | endpoint: mean survival time, dose: 4.0 mg/kg/injection, schedule: Q01DX009 (ip), vehicle: water 110 % of control | endpoint: mean survival time, dose: 8.0 mg/kg/injection, schedule: Q01DX009 (ip), vehicle: water 110 % of control | endpoint: mean survival time, dose: 12.0 mg/kg/injection, schedule: Q01DX009 (ip), vehicle: saline 117 % of control | endpoint: mean survival time, dose: 16.0 mg/kg/injection, schedule: Q01DX009 (ip), vehicle: water 108 % of control | endpoint: mean survival time, dose: 32.0 mg/kg/injection, schedule: Q01DX009 (ip), vehicle: saline 115 % of control and 104 % of control | endpoint: mean survival time, dose: 32.0 mg/kg/injection, schedule: Q01DX009 (ip), vehicle: water 103 % of control | endpoint: mean survival time, dose: 64.0 mg/kg/injection, schedule: Q01DX009 (ip), vehicle: saline 104 % of control | endpoint: median survival time, dose: 0.5 mg/kg/injection, schedule: Q01DX009 (ip), vehicle: saline 88 % of control | endpoint: median survival time, dose: 0.5 mg/kg/injection, schedule: Q03HX024 (ip), vehicle: saline 105 % of control | endpoint: median survival time, dose: 1.0 mg/kg/injection, schedule: Q01DX009 (ip), vehicle: saline 100 % of control and 108 % of control | endpoint: median survival time, dose: 1.0 mg/kg/injection, schedule: Q03HX016 (ip), vehicle: saline 104 % of control | endpoint: median survival time, dose: 1.0 mg/kg/injection, schedule: Q03HX024 (ip), vehicle: saline 105 % of control | endpoint: median survival time, dose: 2.0 mg/kg/injection, schedule: Q03HX008 (ip), vehicle: saline 109 % of control | endpoint: median survival time, dose: 2.0 mg/kg/injection, schedule: Q03HX016 (ip), vehicle: saline 104 % of control | endpoint: median survival time, dose: 2.0 mg/kg/injection, schedule: Q03HX024 (ip), vehicle: saline 104 % of control | endpoint: median survival time, dose: 4.0 mg/kg/injection, schedule: Q03HX008 (ip), vehicle: saline 104 % of control | endpoint: median survival time, dose: 4.0 mg/kg/injection, schedule: Q03HX016 (ip), vehicle: saline 97 % of control | endpoint: median survival time, dose: 4.0 mg/kg/injection, schedule: Q03HX024 (ip), vehicle: saline 104 % of control | endpoint: median survival time, dose: 8.0 mg/kg/injection, schedule: Q03HX008 (ip), vehicle: saline 107 % of control | endpoint: median survival time, dose: 8.0 mg/kg/injection, schedule: Q03HX016 (ip), vehicle: saline 104 % of control | endpoint: median survival time, dose: 8.0 mg/kg/injection, schedule: Q04DX003 (ip), vehicle: saline 107 % of control | endpoint: median survival time, dose: 8.0 mg/kg/injection, schedule: Q08DX002 (ip), vehicle: saline 105 % of control | endpoint: median survival time, dose: 16.0 mg/kg/injection, schedule: Q01DX001 (ip), vehicle: saline 103 % of control | endpoint: median survival time, dose: 16.0 mg/kg/injection, schedule: Q03HX008 (ip), vehicle: saline 103 % of control | endpoint: median survival time, dose: 16.0 mg/kg/injection, schedule: Q03HX016 (ip), vehicle: saline 101 % of control | endpoint: median survival time, dose: 16.0 mg/kg/injection, schedule: Q04DX003 (ip), vehicle: saline 109 % of control | endpoint: median survival time, dose: 16.0 mg/kg/injection, schedule: Q08DX002 (ip), vehicle: saline 105 % of control | endpoint: median survival time, dose: 32.0 mg/kg/injection, schedule: Q01DX001 (ip), vehicle: saline 98 % of control | endpoint: median survival time, dose: 32.0 mg/kg/injection, schedule: Q04DX003 (ip), vehicle: saline 101 % of control | endpoint: median survival time, dose: 32.0 mg/kg/injection, schedule: Q08DX002 (ip), vehicle: saline 102 % of control | endpoint: median survival time, dose: 64.0 mg/kg/injection, schedule: Q01DX001 (ip), vehicle: saline 98 % of control | endpoint: median survival time, dose: 64.0 mg/kg/injection, schedule: Q04DX003 (ip), vehicle: saline 104 % of control | endpoint: median survival time, dose: 64.0 mg/kg/injection, schedule: Q08DX002 (ip), vehicle: saline 107 % of control | endpoint: median survival time, dose: 128.0 mg/kg/injection, schedule: Q01DX001 (ip), vehicle: saline 105 % of control | endpoint: median survival time, dose: 128.0 mg/kg/injection, schedule: Q04DX003 (ip), vehicle: saline 115 % of control | endpoint: median survival time, dose: 128.0 mg/kg/injection, schedule: Q08DX002 (ip), vehicle: saline 97 % of control | endpoint: median survival time, dose: 256.0 mg/kg/injection, schedule: Q01DX001 (ip), vehicle: saline 107 % of control

CC1CN(C)CCN1C (stereo unspecified)
inactive: [4] 100 % of control | endpoint: mean survival time, dose: 100.0 mg/kg/injection, schedule: Q04DX003 (ip), vehicle: saline 104 % of control | [5] 100 % of control | endpoint: mean survival time, dose: 200.0 mg/kg/injection, schedule: Q04DX003 (ip), vehicle: saline 104 % of control | endpoint: mean survival time, dose: 400.0 mg/kg/injection, schedule: Q01DX009 (ip), vehicle: saline 98 % of control | endpoint: mean survival time, dose: 400.0 mg/kg/injection, schedule: Q04DX003 (ip), vehicle: saline 98 % of control
